{"source": "patent US20220362577A1", "about": "“METHODS FOR GUIDING DIRECT DELIVERY OF DRUGS AND/OR ENERGY TO LESIONS USING COMPUTATIONAL MODELING” (University of Vermont and State Agricultural College, priority 2019, published 2022)", "key": {"[1]": {"system": "head, neck and gastric carcinomas", "details": "assumed the same for lung carcinomas; cited from earlier work"}, "[2]": {"system": "mitochondrial respiration", "details": "cisplatin-treated cells; cited from earlier work"}, "[3]": {"test": "Cisplatin blood concentration versus time after EBUS-TBNI into a patient's lung tumor, fitted with Eq. 14", "format": "in vivo, human", "details": "fit of Eq. 14 to blood concentrations after five 8-mg intratumoral injections", "experimental": "Combining Eqs. 2 and 12 gives:\nThe fitting was achieved by optimizing the values of the two free parameters (kf+ki) and Vf using a gradient-based algorithm to minimize the cost function: […]\nUltrasound guidance was used to attempt to distribute the 5 injections evenly throughout the tumor over an interval of 18 min."}}}
{"smiles": "N.N.[Cl][Pt][Cl]", "note": "[cisplatin]", "values": [{"measurement": "ki, rate constant of flow into the intracellular space", "setting": "[1]", "result": 0.000105, "unit": "s⁻¹"}, {"measurement": "concentration above which stepwise decrements in mitochondrial respiration were seen", "setting": "[2]", "result": "above 5.0 uM"}, {"measurement": "ki+kf, sum of rate constants out of the extracellular space", "setting": "[3]", "result": 0.000251, "unit": "s⁻¹"}]}
